According to patent US10441593B2, “Treatment of pain associated with dislocation of endometrium” (PREGLEM S.A., priority 2010, dated 2019):
“And” between values parts separate entries of the source, which are not always exact repeats. Identical values can stand only once.

System: patients with heavy menstrual bleeding and pain who had adenomyosis
Assay: Clinical study: 13 weeks oral 5 mg or 10 mg ulipristal in patients with adenomyosis (Example 1)
Format: in vivo, human
Procedure: A double-blinded, randomized, placebo-controlled study evaluating the effect of long term (13 weeks) oral administration of 5 mg or 10 mg ulipristal in patients with heavy menstrual bleeding and pain included 5 patients who had adenomyosis.
These patients included women 36 years of age or older diagnosed by MRI with adenomyosis but no evidence of uterine fibroid.
The patients were randomized as follows: 1 patient received a daily placebo treatment (matching Esmya tablet appearance) and iron 80 mg/day, 2 patients received a daily dose of 5 mg ulipristal (Esmya®) and iron 80 mg/day and 2 patients received a daily dose of 10 mg ulipristal (Esmya®) and iron 80 mg/day for 13 weeks.
Different parameters were assessed before treatment (Baseline) and after the end of treatment (13 weeks): • The PBAC score (Pictorial Blood Loss Assessment Chart) gives an estimation of the menstrual blood loss. This score was measured before treatment and continuing up to week 13 of treatment. Normal menstrual bleeding score is <75. Abnormal bleeding (menorrhagia) is characterized by a PBAC score >100. Higher the score, worse is the bleeding. • The Uterine volume was estimated before treatment (Baseline Uterine volume) and the % change in uterine volume was reported at the end of the treatment (week 13). • The SF-M P QPart A (short form of the Mc Gill Pain questionnaire) was used as a measure of the sensory, affective and intensity dimensions of pain. The pain was estimated before treatment and the change was reported at the end of the treatment (week 13). (NOTE: The lowest is the score, the better it is). • The SF-MPQ Part B (short form of the Mc Gill Pain questionnaire) wherein the pain is assessed with a visual analogue scale (VAS) before treatment and the change was reported at the end of the treatment (week 13). (NOTE: The lowest is the score, the better it is). • Discomfort questionnaire (disease specific quality of life questionnaire) estimating the quality of life before treatment and the change was reported at the end of the treatment (week 13). (NOTE: The lowest is the score, the better it is). • The level of Hb (Hemoglobin) was measured before treatment and at the end of the treatment. (NOTE: the higher it is, the better it is.) 3. Results

[1] = 5 mg/day + iron 80 mg/day, 13 weeks, patient 130/1368, adenomyosis
[2] = 5 mg/day + iron 80 mg/day, 13 weeks, patient 142/1036, adenomyosis
[3] = 10 mg/day + iron 80 mg/day, 13 weeks, patient 148/1427, adenomyosis
[4] = 10 mg/day + iron 80 mg/day, 13 weeks, patient 154/1240, adenomyosis
[5] = daily dose of 5 mg or 10 mg, examples 1 and 2

With CC(=O)O[C@]1(C(C)=O)CC[C@H]2[C@@H]3CCC4=CC(=O)CCC4=C3[C@@H](c3ccc(N(C)C)cc3)C[C@@]21C [Ulipristal, 17α-acetoxy-11β-[4-N,N-dimethylamino-phenyl)-19-norpregna-4,9-diene-3,20-dione] the “% change in uterine volume at week 13” value [1] was −21.5%, the “Change in PBAC” value [1] was −232 and the “Discomfort questionnaire Change at Week 13” value [1] was −5. The “Hb at Week 13” value [1] was 13.5 g/dL, the “PBAC at week 13” value [1] was 0 and the “SF-MPQ Part A Change at Week 13” value [1] was −5. The “SF-MPQ Part B (VAS) Change at Week 13” value [1] was −7, the “% change in uterine volume at week 13” value [2] was “+0.4%” and the “Change in PBAC” value [2] was −994. The “Discomfort questionnaire Change at Week 13” value [2] was −9, the “Hb at Week 13” value [2] was 14 g/dL and the “PBAC at week 13” value [2] was 0. For the same molecule, the “SF-MPQ Part A Change at Week 13” value [2] was 0, the “SF-MPQ Part B (VAS) Change at Week 13” value [2] was −6 and the “pain at 10 mg, both patients” value (10 mg, both patients, adenomyosis) was “Very substantial improvement in pain”. For the same molecule, the “pain at 10 mg, one of the patients” value (10 mg, one of the two patients, adenomyosis) was “complete absence of pain”, the “% change in uterine volume at week 13” value [3] was 36.4% and the “Change in PBAC” value [3] was −624. For the same molecule, the “Discomfort questionnaire Change at Week 13” value [3] was −20, the “Hb at Week 13” value [3] was 13.6 g/dL and the “PBAC at week 13” value [3] was 0. For the same molecule, the “SF-MPQ Part A Change at Week 13” value [3] was −2, the “SF-MPQ Part B (VAS) Change at Week 13” value [3] was −43 and the “% change in uterine volume at week 13” value [4] was −32.0%. The “Change in PBAC” value [4] was −536, the “Discomfort questionnaire Change at Week 13” value [4] was −12 and the “Hb at Week 13” value [4] was 12.1 g/dL. The “PBAC at week 13” value [4] was 0, the “SF-MPQ Part A Change at Week 13” value [4] was −14 and the “SF-MPQ Part B (VAS) Change at Week 13” value [4] was −93. The “PBAC score at the end of treatment (week 13)” value (all 4 patients treated with 5 mg or 10 mg, adenomyosis) was 0, the “pain as measured with the SF-MPQ Part B (VAS) compared to the placebo treated patient” value (all four patients, 5 mg or 10 mg, 13 weeks, adenomyosis) was “improvements in pain” and the “quality of life compared to the placebo treated patient” value (all four patients, 5 mg or 10 mg, adenomyosis) was “substantial improvement in the quality of life”. The “Hb at the end of the treatment” value (all four patients, 5 mg or 10 mg, concomitant iron 80 mg once daily) was “increase in Hb”, the “PBAC score at the end of the treatment” value [5] was “amenorrhea” and the “uterine volume at the end of treatment” value [5] was “decrease in uterine volume”. The “levels of Hb during the treatment” value (daily dose of 5 mg or 10 mg, with or without concomitant iron) was “increased”, the “% change in uterine volume at week 13” value (individual ulipristal treated patients (5 mg or 10 mg), adenomyosis) was “+36.4% and +0.4% and −21.5% and −32%” and the “pain relief, 10 mg compared to 5 mg” value (patients treated at 10 mg vs patients that received 5 mg, adenomyosis) was “better pain relief”.
